Experimental data from patent US20260035407A1, “CYCLIC PEPTIDE DERIVATIVE, METHOD FOR PRODUCING SAME, AND COMPOSITION” (priority 2022, published 2026).

Each compound was assayed on Mouse astrocytes (assay: Cell proliferation assay (BrdU method) on mouse astrocytes). Conditions: Astrocyte; mouse astrocytes, compound concentration 50 μM, 24 hours treatment in serum-free DMEM, BrdU; read-out: Cell proliferation activity, proliferative activity (%).
Type: cell-based
Description: A screening test regarding the mouse astrocyte proliferation action of the compound synthesized in the Example described above was performed.
• Cells: Mouse astrocytes • Manufacturer: Cosmo Bio • Catalog No.: AST02C • Medium: 10% FBS, 1% PS, DMEM
• Cell proliferation assay (BrdU method)
Mouse astrocytes were put into sleep in a T-75 flask using a medium (10% FBS, 1% Penicillin-Streptomycin, DMEM (Low Glucose)) and cultured in a CO2 incubator (37° C., 5% CO2, ambient O2, wet, and the same applies below) for 4 days. Medium exchange was performed on the second day after sleep onset. The cells were detached using Trypsin-EDTA (0.05%) and phenol red, neutralized with a medium, and centrifuged (180×g, RT, 5 minutes), then seeded in a 96-well plate at 20,000 cells/0.1 mL/well using a medium, and cultured in a CO2 incubator. On the next day, the medium was replaced with serum-free DMEM (Low Glucose), and the cells were further cultured in a CO2 incubator for 24 hours.
Next, the medium was replaced with serum-free DMEM (Low Glucose) to which the compound was added or with compound-free-serum-free DMEM (Low Glucose), and the cells were further cultured in a CO2 incubator for 24 hours to treat the cells with the compound.
After completion of the compound treatment, cell proliferation assay was performed using Cell Proliferation ELISA, BrdU (colometric) (MERCK, Cat. No. 11647229001). 10 μL of a BrdU labeling solution (prepared by adding a BrdU-labeled reagent to a test substance-treated medium in an amount of 1/100 vol) was added thereto, and the mixture was cultured in a CO2 incubator for 4 hours. Next, after removing the medium, FixDenat was added at 200 μL/well and incubated at room temperature for 30 minutes. Next, FixDenat was removed and a POD-labeled anti-BrdU antibody reaction solution (prepared by adding 1/100 vol of a POD-labeled anti-BrdU antibody stock solution to an antibody diluent) was added at 100 μL/well, and the cells were incubated at room temperature for 2 hours. Next, antibodies were removed, and the wells were washed 3 times with 200 μL/well of a washing liquid. After washing, 100 μL/well of a substrate solution was added, incubation was performed at room temperature for 30 minutes, and an absorbance (370 nm, control wavelength 492 nm) was measured with a plate reader. A difference between the test substance-free group and the test substance-treated group was verified by Dunnett's test in which the test substance-free group was used as a control. The significance level was 5% for both groups.

Row | SMILES | activity at 50 µM [%]
1 | CN[C@H]1Cc2ccc(O)c(c2)OC[C@@H](C(=O)N[C@@H](CCC(=O)O)C(=O)O)NC(=O)[C@H](C(C)C)NC1=O [Compound 5] | 90 to 110

Same assay, conditions: Astrocyte; mouse astrocytes, compound concentration 100 μM, 24 hours treatment in serum-free DMEM, BrdU; read-out: Cell proliferation activity, proliferative activity (%)

Row | SMILES | activity at 100 µM [%]
2 | CC(C)[C@@H]1NC(=O)[C@@H](N)Cc2ccc(O)c(c2)OC[C@@H](C(=O)N[C@@H](CCC(=O)O)C(=O)O)NC1=O [Compound 8] | 90 to 110

Same assay, conditions: Astrocyte; mouse astrocytes, compound concentration 200 μM, 24 hours treatment in serum-free DMEM, BrdU; read-out: Cell proliferation activity, proliferative activity (%)

Row | SMILES | activity at 200 µM [%]
3 | CN[C@H]1Cc2ccc(O)c(c2)OC[C@@H](C(=O)N[C@@H](CCC(=O)O)C(=O)O)NC(=O)CNC1=O [Compound 3] | 90 to 110
4 | CN[C@H]1Cc2ccc(O)c(c2)OC[C@@H](C(=O)N[C@@H](CC(=O)O)C(=O)O)NC(=O)CNC1=O [Compound 11] | 110 to 130

Same assay, conditions: Astrocyte; mouse astrocytes, compound concentration 400 μM, 24 hours treatment in serum-free DMEM, BrdU; read-out: Cell proliferation activity, proliferative activity (%)

Row | SMILES | activity at 400 µM [%]
5 | CN[C@H]1Cc2ccc(O)c(c2)O[C@@H](C)[C@@H](C(=O)N[C@@H](CCC(=O)O)C(=O)O)NC(=O)CNC1=O [Compound 4] | 90 to 110
6 | CN[C@H]1Cc2ccc(O)c(c2)O[C@@H](C)[C@@H](C(=O)N[C@@H](CC(=O)O)C(=O)O)NC(=O)CNC1=O [Compound 12] | 110 to 130
7 | N[C@H]1Cc2ccc(O)c(c2)OC[C@@H](C(=O)N[C@@H](CCC(=O)O)C(=O)O)NC(=O)CNC1=O [Compound 7] | 90 to 110

Same assay, conditions: Mus musculus, Astrocyte, 24 h, read-out: Cell proliferation activity, proliferative activity (%)

Row | SMILES | activity at 200 µM [%] | activity at 50 µM [%] | activity at 100 µM [%] | activity at 25 µM [%] | activity at 1000 µM [%]
8 | CC(C)[C@@H]1NC(=O)[C@@H](N)Cc2ccc(O)c(c2)OC(C)(C)[C@@H](C(=O)N[C@@H](CCC(=O)O)C(=O)O)NC1=O [Compound 19] | 110 to 130 |  |  |  | 
9 | CC[C@@]1(C)Oc2cc(ccc2O)C[C@H](NC)C(=O)N[C@@H](CCC(=O)O)C(=O)N[C@@H]1C(=O)N[C@@H](CCC(=O)O)C(=O)O [Compound 25] |  | 90 to 110 |  |  | 
10 | CC[C@@]1(C)Oc2cc(ccc2O)C[C@H](NC)C(=O)N[C@H](C(C)C)C(=O)N[C@@H]1C(=O)N[C@@H](CC(=O)O)C(=O)O [Compound 45] |  | 90 to 110 |  |  | 
11 | CC[C@@]1(C)Oc2cc(ccc2O)C[C@H](NC)C(=O)N[C@@H](C(C)C)C(=O)N(C)[C@@H]1C(=O)N[C@@H](CCC(=O)O)C(=O)O [Compound 43] |  |  | 110 to 130 |  | 
12 | CC[C@@]1(C)Oc2cc(ccc2O)C[C@H](N(C)C)C(=O)N[C@@H](CCC(=O)O)C(=O)N[C@@H]1C(=O)N[C@@H](CCC(=O)O)C(=O)O [Compound 40] |  | 90 to 110 |  |  | 
13 | CC[C@@]1(C)Oc2cc(ccc2O)C[C@H](NC)C(=O)N(C)[C@@H](C(C)C)C(=O)N[C@@H]1C(=O)N[C@@H](CC(=O)O)C(=O)O [Compound 41] |  | 90 to 110 |  |  | 
14 | CC[C@@]1(C)Oc2cc(ccc2O)C[C@H](NC)C(=O)N[C@@H]([C@@H](C)O)C(=O)N[C@@H]1C(=O)N[C@@H](CCC(=O)O)C(=O)O [Compound 28] |  | 110 to 130 |  |  | 
15 | CC[C@@]1(C)Oc2cc(ccc2O)C[C@H](NC)C(=O)N[C@@H](C(C)C)C(=O)N[C@@H]1C(=O)N[C@H](CCC(=O)O)C(=O)O [Compound 20] | 90 to 110 |  |  |  | 
16 | CC[C@@]1(C)Nc2cc(ccc2O)C[C@H](NC)C(=O)N[C@@H](C(C)C)C(=O)N[C@@H]1C(=O)N[C@@H](CCC(=O)O)C(=O)O [Compound 22] | 90 to 110 |  |  |  | 
17 | CC[C@@]1(C)Oc2cc(ccc2O)C[C@H](NC)C(=O)N[C@@H](C(C)C)C(=O)N[C@@H]1C(=O)NCCCC(=O)O [Compound 18] |  | 90 to 110 |  |  | 
18 | CC[C@@]1(C)Oc2cc(ccc2O)C[C@H](N)C(=O)N[C@@H](C(C)C)C(=O)N[C@@H]1C(=O)N[C@@H](CCC(=O)O)C(=O)O [Compound 6] | 110 to 130 |  |  |  | 
19 | CN[C@H]1Cc2ccc(O)c(c2)OC(C)(C)[C@@H](C(=O)N[C@@H](CC(=O)O)C(=O)O)NC(=O)[C@H](C(C)C)NC1=O [Compound 17] |  |  |  | 90 to 110 | 
20 | CC[C@@]1(C)Oc2cc(ccc2O)C[C@H](NC)C(=O)N[C@@H](C(C)C)C(=O)N[C@@H]1C(=O)N[C@H](CC(=O)O)C(=O)O [Compound 21] |  | 90 to 110 |  |  | 
21 | CN[C@H]1Cc2ccc(O)c(c2)OC(C)(C)[C@@H](C(=O)N[C@@H](CCC(=O)O)C(=O)O)NC(=O)[C@H](C(C)C)NC1=O [Compound 16] | 130 to 150 |  |  |  | 
22 | CC[C@@]1(C)Oc2cc(ccc2O)C[C@H](NC)C(=O)NCC(=O)N[C@@H]1C(=O)N[C@@H](CCC(=O)O)C(=O)O [Compound 2] |  |  |  | 110 to 130 | 
23 | CC[C@@]1(C)Oc2cc(ccc2O)C[C@H](NC)C(=O)N[C@@H](Cc2ccc(O)cc2)C(=O)N[C@@H]1C(=O)N[C@@H](CCC(=O)O)C(=O)O [Compound 29] | 90 to 110 |  |  |  | 
24 | CC[C@@]1(C)Oc2cc(ccc2O)C[C@H](NC)C(=O)N(C)[C@@H](C(C)C)C(=O)N[C@@H]1C(=O)N[C@@H](CCC(=O)O)C(=O)O [Compound 42] | 130 to 150 |  |  |  | 

Row | SMILES | activity at 200 µM [%] | activity at 50 µM [%] | activity at 100 µM [%] | activity at 25 µM [%] | activity at 1000 µM [%]
25 | CC[C@@]1(C)Oc2cc(ccc2O)C[C@H](N(C)C)C(=O)N[C@@H](C(C)C)C(=O)N[C@@H]1C(=O)N[C@@H](CCC(=O)O)C(=O)O [Compound 23] |  |  |  |  | 130 to 150
26 | CC[C@@]1(C)Oc2cc(ccc2O)C[C@H](N(C)C)C(=O)N[C@@H](C(C)C)C(=O)N[C@@H]1C(=O)N[C@@H](CC(=O)O)C(=O)O [Compound 39] |  |  | 130 to 150 |  | 
27 | CC[C@@]1(C)Oc2cc(ccc2O)C[C@H](NC)C(=O)N[C@@H](C(C)C)C(=O)N[C@@H]1C(=O)N[C@@H](CCC(=O)O)C(=O)O [Compound 1] |  |  |  | > 150 | 
28 | CC[C@H](C)[C@@H]1NC(=O)[C@@H](NC)Cc2ccc(O)c(c2)O[C@](C)(CC)[C@@H](C(=O)N[C@@H](CCC(=O)O)C(=O)O)NC1=O [Compound 50] |  | 130 to 150 |  |  | 
29 | CC[C@@]1(C)Oc2cc(ccc2O)C[C@H](NC)C(=O)N[C@@H](CCCNC(=N)N)C(=O)N[C@@H]1C(=O)N[C@@H](CCC(=O)O)C(=O)O [Compound 31] |  |  | 110 to 130 |  | 
30 | CC[C@@]1(C)Oc2cccc(c2)C[C@H](NC)C(=O)N[C@@H](C(C)C)C(=O)N[C@@H]1C(=O)N[C@@H](CCC(=O)O)C(=O)O [Compound 14] | 110 to 130 |  |  |  | 
31 | CC[C@@]1(C)Oc2cc(ccc2O)C[C@H](NC)C(=O)N[C@@H](C(C)C)C(=O)N[C@@H]1C(=O)N[C@@H](CC(=O)O)C(=O)O [Compound 9] | > 150 |  |  |  | 
32 | CC[C@@]1(C)Oc2cc(ccc2O)C[C@H](NC)C(=O)N[C@@H](C)C(=O)N[C@@H]1C(=O)N[C@@H](CCC(=O)O)C(=O)O [Compound 48] |  |  | 110 to 130 |  | 
33 | CC[C@@]1(C)Oc2cc(ccc2O)C[C@H](N)C(=O)N[C@@H](C(C)C)C(=O)N[C@@H]1C(=O)N[C@@H](CC(=O)O)C(=O)O [Compound 15] | 90 to 110 |  |  |  | 
34 | CC[C@@]1(C)Oc2cc(ccc2O)C[C@H](NC)C(=O)N[C@@H](CC(C)C)C(=O)N[C@@H]1C(=O)N[C@@H](CCC(=O)O)C(=O)O [Compound 49] | 110 to 130 |  |  |  | 
35 | CC[C@@]1(C)Oc2cc(ccc2O)C[C@H](NC)C(=O)N[C@@H](CO)C(=O)N[C@@H]1C(=O)N[C@@H](CCC(=O)O)C(=O)O [Compound 27] | 90 to 110 |  |  |  | 
36 | CC[C@@]1(C)Oc2cccc(c2)C[C@H](N)C(=O)NCC(=O)N[C@@H]1C(=O)N[C@@H](CCC(=O)O)C(=O)O [Compound 13] | 110 to 130 |  |  |  | 
37 | CC[C@@]1(C)Oc2cc(ccc2O)C[C@H](NC)C(=O)N[C@@H](C(C)C)C(=O)N(C)[C@@H]1C(=O)N[C@@H](CC(=O)O)C(=O)O [Compound 44] | 110 to 130 |  |  |  | 
38 | CC[C@@]1(C)Oc2cc(ccc2O)C[C@H](NC)C(=O)N[C@@H](C(C)C)C(=O)N[C@@H]1C(=O)N(C)[C@@H](CC(=O)O)C(=O)O [Compound 47] | 130 to 150 |  |  |  | 
39 | CC[C@@]1(C)Oc2cc(ccc2OC)C[C@H](NC)C(=O)N[C@@H](C(C)C)C(=O)N[C@@H]1C(=O)N[C@@H](CCC(=O)O)C(=O)O [Compound 37] |  |  | 110 to 130 |  | 
40 | CC[C@@]1(C)Oc2cc(ccc2O)C[C@H](NC)C(=O)NCC(=O)N[C@@H]1C(=O)N[C@@H](CC(=O)O)C(=O)O [Compound 10] |  |  | 110 to 130 |  | 
41 | CC[C@@]1(C)Oc2cc(ccc2O)C[C@H](NC)C(=O)N[C@@H](Cc2ccccc2)C(=O)N[C@@H]1C(=O)N[C@@H](CCC(=O)O)C(=O)O [Compound 24] | 130 to 150 |  |  |  | 
